Measured values as given in patent US9873709B2 (priority 2013, dated 2018).
Where a name gives a salt, the structure may show the parent alone.

System: JAK1-dependent STAT6 phosphorylation downstream of IL-13 stimulation in TF-1 human erythroleukemia cells
Experiment: cells
Settings: TF-1, read-out: IL-13-pSTAT6 IC50

Q: With `CN(Cc1ccc2c(c1)CCCN2C)C(=O)c1ccc(Nc2nc3c(C4=CCN(C(=O)CCC(F)(F)F)CC4)cccn3n2)cc1` [Example 2-477, N-methyl-N-[(1-methyl-3,4-dihydro-2H-quinolin-6-yl)methyl]-4-[[8-[1-(4,4,4-trifluorobutanoyl)-3,6-dihydro-2H-pyridin-4-yl]-[1,2,4]triazolo[1,5-a]pyridin-2-yl]amino]benzamide] as the compound, how does the IC50 read?
A: 113 nM

Q: Which IC50 does the source give for `O=C(CCC(F)(F)F)N1CC=C(c2cccn3nc(Nc4ccc(C(=O)N5CCOC6CCNCC65)cc4)nc23)CC1` (stereo not drawn) [Example 2-453, 1-[4-[2-[4-(2,3,4a,5,6,7,8,8a-octahydropyrido[4,3-b][1,4]oxazine-4-carbonyl)anilino]-[1,2,4]triazolo[1,5-a]pyridin-8-yl]-3,6-dihydro-2H-pyridin-1-yl]-4,4,4-trifluoro-butan-1one] here?
A: 171 nM

Q: `CC1CCN(CCNC(=O)c2ccc(Nc3nc4c(C5=CCN(C(=O)CCC(F)(F)F)CC5)cccn4n3)cc2)CC1` [Example 2-147, N-[2-(4-methyl-1-piperidyl)ethyl]-4-[[8-[1-(4,4,4-trifluorobutanoyl)-3,6-dihydro-2H-pyridin-4-yl]-[1,2,4]triazolo[1,5-a]pyridin-2-yl]amino]benzamide] was tested. Which IC50 did it give?
A: 6.6 nM

Q: How did the IC50 turn out when `CCOC(=O)N1CC=C(c2cccn3nc(Nc4ccc(C(=O)N(C)C5CCN(C)CC5)cc4)nc23)CC1` [Example 2-1, ethyl 4-[2-[4-[methyl-(1-methyl-4-piperidyl)carbamoyl]anilino]-[1,2,4]triazolo[1,5-a]pyridin-8-yl]-3,6-dihydro-2H-pyridine-1-carboxylate] was run?
A: 23.7 nM

Q: With `CCCC(=O)N1CC=C(c2cccn3nc(Nc4ccc(C(=O)N(C)C5CCN(C)CC5)cc4)nc23)CC1` [Example 2-289, 4-[[8-(1-butanoyl-3,6-dihydro-2H-pyridin-4-yl)-[1,2,4]triazolo[1,5-a]pyridin-2-yl]amino]-N-methyl-N-(1-methyl-4-piperidyl)benzamide] as the compound, how does the IC50 read?
A: 42.9 nM

Q: With `Cc1ccc(CC2CCN(C(=O)c3ccc(Nc4nc5c(C6=CCN(C(=O)CCC(F)(F)F)CC6)cccn5n4)cc3)C2)nc1` (stereo not drawn) [Example 2-218, 4,4,4-trifluoro-1-[4-[2-[4-[3-[(5-methyl-2-pyridyl)methyl]pyrrolidine-1-carbonyl]anilino]-[1,2,4]triazolo[1,5-a]pyridin-8-yl]-3,6-dihydro-2H-pyridin-1-yl]butan-1-one] as the compound, how does the IC50 read?
A: 15.4 nM

Q: For `O=C(CCC(F)(F)F)N1CC=C(c2cccn3nc(Nc4ccc(C(=O)N5CCC6(CC5)CNCCO6)cc4)nc23)CC1` [Example 2-380, 4,4,4-trifluoro-1-[4-[2-[4-(1-oxa-4,9-diazaspiro[5.5]undecane-9-carbonyl)anilino]-[1,2,4]triazolo[1,5-a]pyridin-8-yl]-3,6-dihydro-2H-pyridin-1-yl]butan-1-one], which IC50 is on record?
A: 38.4 nM

Q: For `CN(Cc1ccc2ncccc2c1)C(=O)c1ccc(Nc2nc3c(C4=CCN(C(=O)CCC(F)(F)F)CC4)cccn3n2)cc1` [Example 2-460, N-methyl-N-(6-quinolylmethyl)-4-[[8-[1-(4,4,4-trifluorobutanoyl)-3,6-dihydro-2H-pyridin-4-yl]-[1,2,4]triazolo[1,5-a]pyridin-2-yl]amino]benzamide], which IC50 is on record?
A: 27.6 nM

Q: Which IC50 does the source give for `CCOC(=O)N1CC=C(c2cccn3nc(Nc4ccc(C(=O)NCCC5CCCN5)cc4)nc23)CC1` (stereo not drawn) [Example 2-362, ethyl 4-[2-[4-(2-pyrrolidin-2-ylethylcarbamoyl)anilino]-[1,2,4]triazolo[1,5-a]pyridin-8-yl]-3,6-dihydro-2H-pyridine-1-carboxylate] here?
A: 229 nM

Q: With `O=C(CCC(F)(F)F)N1CC=C(c2cccn3nc(Nc4ccc(C(=O)N5CCNCC5CO)cc4)nc23)CC1` (stereo not drawn) [Example 2-33, 4,4,4-trifluoro-1-[4-[2-[4-[2-(hydroxymethyl)piperazine-1-carbonyl]anilino]-[1,2,4]triazolo[1,5-a]pyridin-8-yl]-3,6-dihydro-2H-pyridin-1-yl]butan-1-one] as the compound, how does the IC50 read?
A: 23.3 nM

Q: For `CCOC(=O)N1CC=C(c2cccn3nc(Nc4ccc(C(=O)NC5CCNC5)cc4)nc23)CC1` (stereo not drawn) [Example 2-231, ethyl 4-[2-[4-(pyrrolidin-3-ylcarbamoyl)anilino]-[1,2,4]triazolo[1,5-a]pyridin-8-yl]-3,6-dihydro-2H-pyridine-1-carboxylate], which IC50 is on record?
A: 268 nM

Q: `O=C(NCCN1CCNCC1)c1ccc(Nc2nc3c(C4=CCN(C(=O)CCC(F)(F)F)CC4)cccn3n2)cc1` [Example 2-32, N-(2-piperazin-1-ylethyl)-4-[[8-[1-(4,4,4-trifluorobutanoyl)-3,6-dihydro-2H-pyridin-4-yl]-[1,2,4]triazolo[1,5-a]pyridin-2-yl]amino]benzamide] was tested. Which IC50 did it give?
A: 536 nM

Q: Which IC50 does the source give for `O=C(CCC(F)(F)F)N1CC=C(c2cccn3nc(Nc4ccc(C(=O)N5CCC6(CCCCN6)C5)cc4)nc23)CC1` (stereo not drawn) [Example 2-378, 1-[4-[2-[4-(2,6-diazaspiro[4.5]decane-2-carbonyl)anilino]-[1,2,4]triazolo[1,5-a]pyridin-8-yl]-3,6-dihydro-2H-pyridin-1-yl]-4,4,4-trifluoro-butan-1-one] here?
A: 238 nM

Q: How did the IC50 turn out when `CN1CCC(N(C)C(=O)c2ccc(Nc3nc4c(C5=CCN(C(=O)OCC(F)F)CC5)cccn4n3)cc2)CC1` [Example 2-225, 2,2-difluoroethyl 4-[2-[4-[methyl-(1-methyl-4-piperidyl)carbamoyl]anilino]-[1,2,4]triazolo[1,5-a]pyridin-8-yl]-3,6-dihydro-2H-pyridine-1-carboxylate] was run?
A: 11.3 nM

Q: Which IC50 does the source give for `CCOC(=O)N1CC=C(c2cccn3nc(Nc4ccc(C(=O)N5CC(NC)C5)cc4)nc23)CC1` [Example 2-55, Ethyl 4-[2-[4-[3-(methylamino)azetidine-1-carbonyl]anilino]-[1,2,4]triazolo[1,5-a]pyridin-8-yl]-3,6-dihydro-2H-pyridine-1-carboxylate] here?
A: 10 nM

Q: For `CN1CC(NC(=O)c2ccc(Nc3nc4c(N5CCC(O)(c6ccc(Cl)cc6)CC5)cccn4n3)cc2)C1` [Example 1-92, 4-[[8-[4-(4-chlorophenyl)-4-hydroxy-1-piperidyl]-[1,2,4]triazolo[1,5-a]pyridin-2-yl]amino]-N-(1-methylazetidin-3-yl)benzamide], which IC50 is on record?
A: 59.3 nM

Q: `Cc1cncc(CNC(=O)c2ccc(Nc3nc4c(C5=CCN(C(=O)CCC(F)(F)F)CC5)cccn4n3)cc2)c1` [Example 2-206, N-[(5-methyl-3-pyridyl)methyl]-4-[[8-[1-(4,4,4-trifluorobutanoyl)-3,6-dihydro-2H-pyridin-4-yl]-[1,2,4]triazolo[1,5-a]pyridin-2-yl]amino]benzamide] was tested. Which IC50 did it give?
A: 3.4 nM

Q: How did the IC50 turn out when `O=C(NC1CCNCC1)c1ccc(Nc2nc3c(C4=CCN(C(=O)CCC(F)(F)F)CC4)cccn3n2)cc1` [Example 2-445, N-(4-piperidyl)-4-[[8-[1-(4,4,4-trifluorobutanoyl)-3,6-dihydro-2H-pyridin-4-yl]-[1,2,4]triazolo[1,5-a]pyridin-2-yl]amino]benzamide] was run?
A: 456 nM

Q: How did the IC50 turn out when `O=C(CCC(F)(F)F)N1CC=C(c2cccn3nc(Nc4ccc(C(=O)N5CCCC5c5cccnc5)cc4)nc23)CC1` (stereo not drawn) [Example 2-145, 4,4,4-trifluoro-1-[4-[2-[4-[2-(3-pyridyl)pyrrolidine-1-carbonyl]anilino]-[1,2,4]triazolo[1,5-a]pyridin-8-yl]-3,6-dihydro-2H-pyridin-1-yl]butan-1-one] was run?
A: 6.4 nM

Q: For `CNC(=O)N1CC=C(c2cccn3nc(Nc4ccc(C(=O)N(C)C5CCN(C)CC5)cc4)nc23)CC1` [Example 2-106, N-methyl-4-[2-[4-[methyl-(1-methyl-4-piperidyl)carbamoyl]anilino]-[1,2,4]triazolo[1,5-a]pyridin-8-yl]-3,6-dihydro-2H-pyridine-1-carboxamide; hydrochloride], which IC50 is on record?
A: 8570 nM

Q: Which IC50 does the source give for `O=C(c1ccc(Nc2nc3c(N4CCC(O)(c5ccc(Cl)cc5)CC4)cccn3n2)cc1)N1CCC2(CNC2)C1` [Example 1-205, [4-[[8-[4-(4-chlorophenyl)-4-hydroxy-1-piperidyl]-[1,2,4]triazolo[1,5-a]pyridin-2-yl]amino]phenyl]-(2,6-diazaspiro[3.4]octan-6-yl)methanone] here?
A: 522 nM

Q: With `O=C(NC1CCNCC1)c1ccc(Nc2nc3c(N4CCC(O)(c5ccc(Cl)cc5)CC4)cccn3n2)cc1` [Example 1-181, 4-[[8-[4-(4-chlorophenyl)-4-hydroxy-1-piperidyl]-[1,2,4]triazolo[1,5-a]pyridin-2-yl]amino]-N-(4-piperidyl)benzamide] as the compound, how does the IC50 read?
A: 181 nM

Q: With `O=C(NCCN1CCOCC1)c1ccc(Nc2nc3c(C4=CCN(C(=O)CCC(F)(F)F)CC4)cccn3n2)cc1` [Example 2-465, N-(2-morpholinoethyl)-4-[[8-[1-(4,4,4-trifluorobutanoyl)-3,6-dihydro-2H-pyridin-4-yl]-[1,2,4]triazolo[1,5-a]pyridin-2-yl]amino]benzamide] as the compound, how does the IC50 read?
A: 9.4 nM

Q: How did the IC50 turn out when `CN1CCC(N(C)C(=O)c2ccc(Nc3nc4c(C5=CCN(C(=O)N6CC(C)(C)C6)CC5)cccn4n3)cc2)CC1` [Example 2-290, 4-[[8-[1-(3,3-dimethylazetidine-1-carbonyl)-3,6-dihydro-2H-pyridin-4-yl]-[1,2,4]triazolo[1,5-a]pyridin-2-yl]amino]-N-methyl-N-(1-methyl-4-piperidyl)benzamide] was run?
A: 37.7 nM

Q: `O=C(CCC(F)(F)F)N1CC=C(c2cccn3nc(Nc4ccc(C(=O)N5CCC6(CNC6)C5)cc4)nc23)CC1` [Example 2-379, 1-[4-[2-[4-(2,6-diazaspiro[3,4]octane-6-carbonyl)anilino]-[1,2,4]triazolo[1,5-a]pyridin-8-yl]-3,6-dihydro-2H-pyridin-1-yl]-4,4,4-trifluoro-butan-1-one] was tested. Which IC50 did it give?
A: 282 nM

Q: For `CN1CCC(N(C)C(=O)c2ccc(Nc3nc4c(N5CCC(C)(c6ccc(Cl)cc6)CC5)cccn4n3)cc2)CC1` [Example 1-262, 4-[[8-[4-(4-chlorophenyl)-4-methyl-1-piperidyl]-[1,2,4]triazolo[1,5-a]pyridin-2-yl]amino]-N-methyl-N-(1-methyl-4-piperidyl)benzamide], which IC50 is on record?
A: 120 nM

Q: Which IC50 does the source give for `CN1CCC(N(C)C(=O)c2ccc(Nc3nc4c(C5=CCN(C(=O)C6CCCCC6)CC5)cccn4n3)cc2)CC1` [Example 2-348, 4-[[8-[1-(cyclohexanecarbonyl)-3,6-dihydro-2H-pyridin-4-yl]-[1,2,4]triazolo[1,5-a]pyridin-2-yl]amino]-N-methyl-N-(1-methyl-4-piperidyl)benzamide] here?
A: 34.7 nM
